How the values were obtained:
hERG potassium channel = hERG potassium channel (Homo sapiens, UniProt Q12809); assay: hERG screening assay (PatchXpress patch clamp, CHO cells)
Protocol: Compounds were screened to test their activity in blocking the hERG potassium channel. The hERG channel is heterologously expressed in a CHO (Chinese Hamster Ovary) cell line. Cells are maintained with standard tissue culture procedures and stable channel expression is maintained with 500 μg/ml G418 in the culture medium. Cells are harvested for testing on the PatchXpress automated patch clamp with Acctumax (Innovative Cell Technologies, San Diego, Calif.) to isolate single cells.
The following solutions are used for electrophysiological recordings. The external solution contains: 2 mM CaCl2; 2 mM MgCl2; 4 mM KCl; 150 mM NaCl; 10 mM Glucose; 10 mM HEPES (pH 7.4 with 1M NaOH, osmolarity).
hERG channels are activated when the voltage is stepped to +20 mV from the −80 mV holding potential (see FIG. 3). During a 5 second step at +20 mV, the channels activate and then largely inactivate, so the currents are relatively small. Upon returning to −50 mV from +20 mV, hERG currents transiently become much larger as inactivation is rapidly removed and then the channel closes. The first step to −50 mV for 300 ms is used as a baseline for measuring the peak amplitude during the step to −50 mV after channel activation. The peak current at −50 mV is measured both under control conditions and after addition of compound.
All compounds are prepared as 10 mM DMSO stocks in glass vials. Stock solutions are mixed by vigorous vortexing and sonication for about 2 minutes at room temperature. For testing, compounds are diluted in glass vials using an intermediate dilution step in pure DMSO and then further diluted to working concentrations in external solution. Dilutions are prepared no longer than 20 minutes before use.
After achieving the whole-cell configuration, cells are monitored for 90 seconds to assess stability and washed with external solution for 66 seconds. The voltage protocol described above is then applied to the cells every 12 seconds and throughout the whole procedure. Only cells with stable recording parameters and meeting specified health criteria are allowed to enter the compound addition procedure.
External solution containing 0.1% DMSO (vehicle) is applied to the cells first to establish the control peak current amplitude. After allowing the current to stabilize for 3 to 5 minutes, 1 μM and then 10 μM test compounds are applied. Each compound concentration is added 4 times and cells are kept in test solution until the effect of the compound reaches steady state or for a maximum of 12 minutes. […] Washout in the external solution compartment is performed until the recovery of the current reaches steady state. Data are analyzed using DataXpress, Clampfit (Molecular Devices, Inc., Sunnyvale) and Origin 7 (Originlab Corp.)

L-type calcium channel = L-type calcium channel activity well-plate assay (IMR-32 cells, Ca-4 dye, FlexStation); assay type: cell-based, human
Protocol: Cell Culture: IMR-32 (human neuroblastoma) cells were obtained from The American Type Culture Collection. The cells were maintained in MEM supplemented with 10% fetal bovine serum, 2 mM of L-glutamine, 100 IU/ml of penicillin, 50 μg/ml of streptomycin, 1% of sodium pyruvate, 1% of sodium bicarbonate and 1% of non-essential amino acid. […] Culture medium was changed every two days and cells were recultivated when they reached 70-80% confluent.
Assay: IMR-32 cells were seeded on a Microtest 96-well Assay Plate (BD FALCON™) at a density of 200,000 cells/well in 200 μl culture medium for overnight. The culture medium was removed, and replaced by 120 μl Ca-4 dye (MDS Analytical Technologies, Sunnyvale, Calif.) in HBSS (1× Hank's Balanced Salt solution plus 20 mM HEPES, pH 7.4) containing 2 mM probenecid. Cells were then incubated for 1 hour at 37° in incubator. Testing compounds were diluted from 5 μM-50 μM in HBSS, and 40 μl were added in cells before assay. […] The inhibition of L-type calcium channel activity by compounds was then calculated.

Chain of hERG potassium channel (Q12809 whole entry): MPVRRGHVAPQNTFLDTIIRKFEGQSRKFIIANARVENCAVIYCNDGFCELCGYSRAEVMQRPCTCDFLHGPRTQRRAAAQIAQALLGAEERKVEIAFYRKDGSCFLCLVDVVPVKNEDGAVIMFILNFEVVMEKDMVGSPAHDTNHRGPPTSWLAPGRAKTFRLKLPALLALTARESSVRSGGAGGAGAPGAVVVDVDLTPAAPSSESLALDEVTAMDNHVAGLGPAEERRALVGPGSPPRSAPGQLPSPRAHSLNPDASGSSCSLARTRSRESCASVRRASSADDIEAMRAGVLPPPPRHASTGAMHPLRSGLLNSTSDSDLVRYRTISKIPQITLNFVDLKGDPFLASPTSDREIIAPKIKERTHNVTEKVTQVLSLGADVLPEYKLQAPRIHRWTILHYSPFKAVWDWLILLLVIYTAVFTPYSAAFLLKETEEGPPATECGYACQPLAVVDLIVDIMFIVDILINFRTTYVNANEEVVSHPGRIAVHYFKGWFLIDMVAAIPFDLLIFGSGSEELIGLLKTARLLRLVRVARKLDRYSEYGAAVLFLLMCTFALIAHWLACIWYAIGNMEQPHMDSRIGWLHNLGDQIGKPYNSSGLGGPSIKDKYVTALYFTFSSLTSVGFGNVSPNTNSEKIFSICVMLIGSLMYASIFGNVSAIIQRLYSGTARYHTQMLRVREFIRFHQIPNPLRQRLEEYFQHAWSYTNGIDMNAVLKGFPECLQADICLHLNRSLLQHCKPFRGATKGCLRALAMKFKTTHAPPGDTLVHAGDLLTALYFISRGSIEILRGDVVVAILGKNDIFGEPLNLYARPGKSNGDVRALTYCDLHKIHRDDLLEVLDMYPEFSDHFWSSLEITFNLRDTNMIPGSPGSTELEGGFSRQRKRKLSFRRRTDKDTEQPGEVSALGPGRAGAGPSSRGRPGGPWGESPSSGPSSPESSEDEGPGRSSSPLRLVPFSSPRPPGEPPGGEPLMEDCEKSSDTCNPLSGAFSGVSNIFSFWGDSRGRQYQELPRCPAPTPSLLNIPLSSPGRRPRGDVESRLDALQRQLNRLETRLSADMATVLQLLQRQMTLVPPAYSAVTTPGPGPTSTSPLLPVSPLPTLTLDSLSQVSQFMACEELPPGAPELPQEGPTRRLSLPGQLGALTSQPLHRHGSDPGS

| SMILES | hERG Patch Clamp hERG % blk (1 μM test cmpd) (hERG potassium channel) [%] | hERG Patch Clamp hERG % blk (10 μM test cmpd) (hERG potassium channel) [%] | CaL Plate Assay % blk (1 μM test cmpd) (L-type calcium channel) [%] | CaL Plate Assay % blk (10 μM test cmpd) (L-type calcium channel) [%] |
| --- | --- | --- | --- | --- |
| CCOC(=O)C1=C(C)Nc2nnnn2C1c1ccc2ccccc2c1 (stereo not drawn) [PT-008, ethyl 5-methyl-7-(naphthalen-2-yl)-4,7-dihydrotetrazolo[1,5-a]pyrimidine-6-carboxylate] | 10 | 33.5 | 0 | 9 |
| CC1=C(C(=O)OCc2ccccc2)C(c2sc3ccccc3c2C)n2nnnc2N1 (stereo not drawn) [PT-044, benzyl 5-methyl-7-(3-methylbenzo[b]thiophen-2-yl)-4,7-dihydrotetrazolo[1,5-a]pyrimidine-6-carboxylate] | 16.5 | 40 | 7 | 35 |
| CC1=C(C(=O)OC(C)C)C(c2ccc(Br)s2)C(C(=O)OC(C)C)=C(C)N1 [PT-124, diisopropyl 4-(5-bromothiophen-2-yl)-2,6-dimethyl-1,4-dihydropyridine-3,5-dicarboxylate] | 11.5 | 66 | 10 | 52 |
| N#CC1=C(N)NC2=C(C(=O)CCC2)C1c1ccc(Br)cc1 (stereo not drawn) [PT-095, 2-amino-4-(4-bromophenyl)-5-oxo-1,4,5,6,7,8-hexahydroquinoline-3-carbonitrile] | 10 | 24.5 | 0 | 15 |
| CC1=C(C(=O)OC(C)C)C(c2cccc3ccccc23)C(C(=O)OC(C)C)=C(C)N1 [PT-123, diisopropyl 2,6-dimethyl-4-(naphthalen-1-yl)-1,4-dihydropyridine-3,5-dicarboxylate] | 10 | 30.5 | 59 | 92 |
| CC1=C(C(=O)OCc2ccccc2)C(c2csc3ccccc23)n2nnnc2N1 (stereo not drawn) [PT-042, benzyl 7-(benzo[b]thiophen-3-yl)-5-methyl-4,7-dihydrotetrazolo[1,5-a]pyrimidine-6-carboxylate] | 11 | 52.5 | 0 | 16 |
| CCOC(=O)C1=C(CC)NC(CC)=C(C(=O)OCC)C1c1ccc(Br)s1 [PT-181, diethyl 4-(5-bromothiophen-2-yl)-2,6-diethyl-1,4-dihydropyridine-3,5-dicarboxylate] | 10.5 | 73 | 8 | 61 |
| CCOC(=O)C1=C(C)Nc2nc(C#N)c(C#N)n2C1c1cccc2ccccc12 (stereo not drawn) [PT-194, ethyl 2,3-dicyano-7-methyl-5-(naphthalen-1-yl)-5,8-dihydroimidazo[1,2-a]pyrimidine-6-carboxylate] | 25 | 91 | 21 | 61 |
| CC1=C(C(=O)OCc2ccccc2)C(c2cccc3ccccc23)n2nnnc2N1C (stereo not drawn) [PT-195, benzyl 4,5-dimethyl-7-(naphthalen-1-yl)-4,7-dihydrotetrazolo[1,5-a]pyrimidine-6-carboxylate] | 12.5 | 49 | 0 | 88 |
| CCCC1=C(C(=O)OCC)C(c2ccsc2)C2=C(CC(c3ccccc3)CC2=O)N1 (stereo not drawn) [PT-149, ethyl 5-oxo-7-phenyl-2-propyl-4-(thiophen-3-yl)-1,4,5,6,7,8-hexahydroquinoline-3-carboxylate] | 46 | 90 | 4 | 72 |
| CC1=C(C(=O)OCc2ccccc2)C(c2c3ccccc3cc3ccccc23)n2nnnc2N1 (stereo not drawn) [PT-039, benzyl 7-(anthracen-9-yl)-5-methyl-4,7-dihydrotetrazolo[1,5-a]pyrimidine-6-carboxylate] | 10 | 27.5 | 2 | 0 |
| N#CC1=C(N)OC2=C(C(=O)CC(c3ccccc3)C2)C1c1cccs1 (stereo not drawn) [PT-101, 2-amino-5-oxo-7-phenyl-4-(thiophen-2-yl)-5,6,7,8-tetrahydro-4H-chromene-3-carbonitrile] | 19 | 67.5 | 6 | 47 |
| CCOC(=O)C1=C(C)NC(C)=C(C(=O)OCC)C1c1ccc(CC)s1 [PT-113, diethyl 4-(5-ethylthiophen-2-yl)-2,6-dimethyl-1,4-dihydropyridine-3,5-dicarboxylate] | 11 | 57.5 | 18 | 93 |
| CC1=C(C(=O)OCc2ccccc2)C(c2cc3ccccc3o2)n2nnnc2N1 (stereo not drawn) [PT-045, benzyl 7-(benzofuran-2-yl)-5-methyl-4,7-dihydrotetrazolo[1,5-a]pyrimidine-6-carboxylate] | 10 | 70 | 0 | 98 |
| N#CC1=C(N)OC2=C(C(=O)CCC2)C1c1ccc(Br)cc1 (stereo not drawn) [PT-096, 2-amino-4-(4-bromophenyl)-5-oxo-5,6,7,8-tetrahydro-4H-chromene-3-carbonitrile] | 15 | 48 | 8 | 39 |
| CC1=C(C(=O)N2CCC(c3ccc(C(=O)O)cc3)CC2)C(c2cccc3ccccc23)C2=C(CCCC2=O)N1 (stereo not drawn) [PT-173, 4-(1-(2-methyl-4-(naphthalen-1-yl)-5-oxo-1,4,5,6,7,8-hexahydroquinoline-3-carbonyl)piperidin-4-yl)benzoic acid] | 12 | 37 | 0 | 26 |
| CCOC(=O)C1=C(C)N(C)C(C)=C(C(=O)OCC)C1c1cccc2ccccc12 [PT-191, diethyl 1,2,6-trimethyl-4-(naphthalen-1-yl)-1,4-dihydropyridine-3,5-dicarboxylate] | 26.5 | 68 | 12 | 37 |
| CCOC(=O)C1=C(C(C)C)NC(C(C)C)=C(C(=O)OCC)C1c1ccc(Br)s1 [PT-183, diethyl 4-(5-bromothiophen-2-yl)-2,6-diisopropyl-1,4-dihydropyridine-3,5-dicarboxylate] | 10 | 10 | 0 | 16 |
| CC1=C(C(=O)OCc2ccccc2)C(c2cccc3ccccc23)n2nnnc2N1 (stereo not drawn) [PT-027, benzyl 5-methyl-7-(naphthalen-1-yl)-4,7-dihydrotetrazolo[1,5-a]pyrimidine-6-carboxylate] | 14 | 64.5 | 0 | 0 |
| CCOC(=O)C1=C(C)NC(C)=C(C(=O)OCC)C1c1cc2ccccc2s1 [PT-114, diethyl 4-(benzo[b]thiophen-2-yl)-2,6-dimethyl-1,4-dihydropyridine-3,5-dicarboxylate] | 27.5 | 86.5 | 8 | 15 |
| CCOC(=O)C1=C(C)NC(C)=C(C(=O)OCC)C1c1sc2ccccc2c1C [PT-116, diethyl 2,6-dimethyl-4-(3-methylbenzo[b]thiophen-2-yl)-1,4-dihydropyridine-3,5-dicarboxylate] | 22.9 | 66 | 6 | 32 |
| CCOC(=O)C1=C(C)NC2=C(C(=O)CCC2)C1c1ccco1 (stereo not drawn) [PT-153, ethyl 4-(furan-2-yl)-2-methyl-5-oxo-1,4,5,6,7,8-hexahydroquinoline-3-carboxylate] | 10.5 | 13.5 | 3 | 44 |
| CCOC(=O)C1=C(C)Nc2nnnn2C1c1cccc2ccccc12 (stereo not drawn) [PT-192, ethyl 5-methyl-7-(naphthalen-1-yl)-4,7-dihydrotetrazolo[1,5-a]pyrimidine-6-carboxylate] | 23 | 29 | 9 | 12 |
| CCOC(=O)C1=C(C)NC(C)=C(C(=O)OCC)C1c1ccc2ccccc2c1 [PT-107, diethyl 2,6-dimethyl-4-(naphthalen-2-yl)-1,4-dihydropyridine-3,5-dicarboxylate] | 11.5 | 48 | 10 | 44 |

Source: US20090181986A1, “SUBSTITUTED HETEROCYCLIC COMPOUNDS” (priority 2007, published 2009)
